Measurements: patent US8017772B2, “Substituted tetrahydropyrrolopyrazine compounds and the use thereof in the treatment and/or inhibition of pain” (Gruenenthal GmbH, priority 2006, dated 2011)

Experiments:
hKCNQ2/3 [1] = target: T1, hKCNQ2/3 (Homo sapiens, UniProt O43525+O43526); experiment: Voltage clamp (patch-clamp) measurements on stably transfected hKCNQ2/3 CHO-K1 cell line; format: cell-based; details: potential −40 mV, relative to retigabine (RG = 1)
Method: Voltage Clamp Measurements
In order to confirm a KCNQ2/3-agonistic action of the substances electrophysiologically, patch-clamp measurements (Hamill et al., 1981) were carried out in voltage clamp mode on a stably transfected hKCNQ2/3 CHO-K1 cell line. After formation of the gigaseal, the cells were first clamped at a holding potential of −60 mV. Thereafter, depolarizing voltage jumps were applied up to a potential of +20 mV (increment: 20 mV, duration: 1 second) in order to confirm the functional expression of KCNQ2/3-typical currents. The testing of the substances was carried out at a potential of −40 mV. The increase in current induced by retigabine (10 at −40 mV was first recorded as a positive control on each cell. After complete washing out of the retigabine effect (duration: 80 s), the test substance was applied. • See: Hamill O P, Marty A, Neher E, Sakmann B, Sigworth F J.: Improved patch-clamp techniques for high-resolution current recording from cells and cell-free membrane patches. Pflugers Arch. 1981 August; 391(2):85-100.

hKCNQ2/3 [2] = target: T1, hKCNQ2/3; experiment: Fluorescence assay using a voltage sensitive dye (BMG); format: cell-based; details: CHO-K1 cells expressing KCNQ2/3; for activation at 10 µM: agonistic activity at 10 μM, read-out: BMG AG %@10 μm
Method: 11. Biological Data 12. Fluorescence Assay Using a Voltage Sensitive Dye
Human CHO-K1 cells expressing KCNQ2/3 channels are cultivated adherently at 37° C., 5% CO2 and 95% humidity in cell culture bottles (e.g. 80 cm^2 TC flasks, Nunc) with MEM Alpha Medium (1×, liquid, Invitrogen, #22571), 10% fetal calf serum (FCS) (Invitrogen, #10270-106, heat-inactivated) and the necessary selection antibiotics.
Before being sown out for the measurements, the cells are washed with a 1×DPBS buffer without Ca^2+/Mg^2+ (e.g. Invitrogen, #14190-094) and detached from the bottom of the culture vessel by means of Accutase (PAA Laboratories, #L11-007) (incubation with Accutase for 15 min at 37° C.). The cell count then present is determined using a CASY™ cell counter (TCC model, Schärfe System) in order subsequently to apply 20,000 cells/well/100 μl of the described nutrient medium to 96-well measuring plates of the Corning™ CellBIND™ type (Flat Clear Bottom Black Polystyrene Microplates, #3340). Incubation is then carried out for one hour at room temperature, without gassing or adjusting the humidity, followed by incubation for 24 hours at 37° C., 5% CO2 and 95% humidity.
The voltage-sensitive fluorescent dye from the Membrane Potential Assay Kit (Red™ Bulk format part R8123 for FLIPR, Molecular Devices™) is prepared by dissolving the contents of a vessel Membrane Potential Assay Kit Red Component A in 200 ml of extracellular buffer (ES buffer, 120 mM NaCl, 1 mM KCl, 10 mM HEPES, 2 mM CaCl2, 2 mM MgCl2, 10 mM glucose; pH 7.4). After removal of the nutrient medium, the cells are washed with 200 μl of ES buffer, then covered with a layer of 100 μl of the dye solution prepared above and incubated for 45 min at room temperature with the exclusion of light.
The fluorescence measurements are carried out with a BMG Labtech FLUOstar™ or BMG Labtech POLARstar™ instrument (525 nm excitation, 560 nm emission, Bottom Read mode). After incubation of the dye, […] of the test substances in the desired concentrations, or 50 μl of ES buffer for control purposes, are introduced into separate cavities of the measuring plate and incubated for 30 min at room temperature while being shielded from light. The fluorescence intensity of the dye is then measured for 5 min and the fluorescence value F1 of each well is thus determined at a given, constant time. 15 μl of a […] KCl solution ([…]) are then added to each well. The change in fluorescence is subsequently measured until all the relevant measured values have been obtained (mainly 5-30 min). At a given time after KCl application, a fluorescence value F2 is determined, in this case at the time of the fluorescence peak.
For calculation, the fluorescence intensity F2 is compared with the fluorescence intensity F1, and the agonistic activity of the target compound on the potassium channel is determined therefrom. F2 and F1 are calculated as follows:
[formula] In order to determine whether a substance has an agonistic effect,
[formula] for example, can be compared with
[formula] determined by adding to the reaction batch only the buffer solution instead of the substance to be tested, determining the value F1K of the fluorescence intensity, adding the potassium ions as described above and measuring a value F2K of the fluorescence intensity. Then F2K and F1K are calculated as follows: […]
A substance has an agonistic activity on the potassium channel when
[formula] is greater than
[formula] Independently of the comparison of
[formula] it is also possible to conclude that a target compound has agonistic activity if an increase in
[formula] is to be observed as the dosage of the target compound increases. Calculations of EC50 and IC50 values are carried out with the aid of “Prism 4” software (GraphPad Software™). The following compounds were tested by way of example: […]

SMILES | MAN rel eff @ 10 μM [RG = 1] (hKCNQ2/3 [1]) | activation at 10 µM (hKCNQ2/3 [2]) [%] | EC50 (hKCNQ2/3 [2]) [µM]
O=C(CC(=O)N1CCn2cccc2C1c1ccccc1)Nc1cccc(C(F)(F)F)c1 (centres unmarked) [Example 90] | −0.46 | -20 | 
O=C(CCC(=O)N1CCn2cccc2C1c1ccccc1)NCc1cccs1 (centres unmarked) [Example 83, 4-oxo-4-(1-phenyl-3,4-dihydropyrrolo[1,2-a]pyrazin-2(1H)-yl)-N-(thiophen-2-ylmethyl)butanamide] |  |  | 14.3
CC(NC(=O)CCC(=O)N1CCn2cccc2C1Cc1ccccc1)c1cccc(C(F)(F)F)c1 (centres unmarked) [Example 80, 4-(1-benzyl-3,4-dihydropyrrolo[1,2-a]pyrazin-2(1H)-yl)-4-oxo-N-(1-(3-(trifluoromethyl)phenyl)ethyl)butanamide] |  | 10 | 
CC1c2cccn2CCN1C(=O)CCC(=O)NCc1ccc(F)cc1 (centres unmarked) [Example 85, N-(4-fluorobenzyl)-4-(1-methyl-3,4-dihydropyrrolo[1,2-a]pyrazin-2(1H)-yl)-4-oxobutanamide] |  | 0 | 
O=C(CC(=O)N1CCn2cccc2C1c1ccccc1)NCc1cccc(C(F)(F)F)c1 (centres unmarked) [Example 89, 3-oxo-3-(1-phenyl-3,4-dihydropyrrolo[1,2-a]pyrazin-2(1H)-yl)-N-(3-(trifluoromethyl)benzyl)propanamide] |  |  | 4.55
Cc1cccc(C2c3cccn3CCN2C(=O)CCC(=O)NCc2cccc(C(F)(F)F)c2)c1 (centres unmarked) [Example 5, 4-oxo-4-(1-m-tolyl-3,4-dihydro-1H-pyrrolo[1,2-a]pyrazin-2-yl)-N-(3-trifluoromethyl-benzyl)-butyramide] |  | 28 | 
Cc1ccc(C2c3cccn3CCN2CC(=O)NCc2cccc(C(F)(F)F)c2)cc1 (centres unmarked) [Example 37, 2-(1-p-tolyl-3,4-dihydro-1H-pyrrolo[1,2-a]pyrazin-2-yl)-N-(3-trifluoromethyl-benzyl)-acetamide] |  | 24 | 
O=C(/C=C/c1ccccc1F)NCC(=O)N1CCn2cccc2C1c1ccccc1 (centres unmarked) [Example 92, (E)-3-(2-fluorophenyl)-N-(2-oxo-2-(1-phenyl-3,4-dihydropyrrolo[1,2-a]pyrazin-2(1H)-yl)ethyl)acrylamide] |  | 7 | 
CC1c2cccn2CCN1C(=O)CCC(=O)NCc1cccc(C(F)(F)F)c1 (centres unmarked) [Example 86, 4-(1-methyl-3,4-dihydropyrrolo[1,2-a]pyrazin-2(1H)-yl-4-oxo-N-(3-trifluoromethyl)benzyl)butanamide] |  |  | 11.6
O=C(CCCc1ccccc1)NCC(=O)N1CCn2cccc2C1c1ccccc1 (centres unmarked) [Example 88, N-(2-oxo-2-(1-phenyl-3,4-dihydropyrrolo[1,2-a]pyrazin-2(1H)-yl)ethyl)-4-phenylbutanamide] |  | 5 | 

Now from value to compound:

MAN rel eff @ 10 μM [RG = 1] (hKCNQ2/3 [1]) | activation at 10 µM (hKCNQ2/3 [2]) [%] | EC50 (hKCNQ2/3 [2]) [µM] | SMILES
 | 21 |  | COc1cccc(C2c3cccn3CCN2CC(=O)NCc2cccc(C(F)(F)F)c2)c1 (centres unmarked) [Example 20, 2-(1-(3-methoxyphenyl)-3,4-dihydropyrrolo[1,2-a]pyrazin-2(1H)-yl)-N-(3-(trifluoromethyl)benzyl)acetamide]
0.25 |  | 2.95 | CC(NC(=O)CCC(=O)N1CCn2cccc2C1c1ccccc1)c1cccc(C(F)(F)F)c1 (centres unmarked) [Example 81, 4-oxo-4-(1-phenyl-3,4-dihydropyrrolo[1,2-a]pyrazin-2(1H)-yl)-N-(1-(3-(trifluoromethyl)phenyl)ethyl)butanamide]
 | 69 |  | O=C(CCC(=O)N1CCn2cccc2C1c1ccc(Cl)cc1)NCc1cccc(C(F)(F)F)c1 (centres unmarked) [Example 1, 4-[1-(4-chloro-phenyl)-3,4-dihydro-1H-pyrrolo[1,2-a]pyrazin-2-yl]-4-oxo-N-(3-trifluoromethyl-benzyl)-butyramide]
 |  | 2.97 | O=C(CN1CCn2cccc2C1c1ccc2c(c1)OCCO2)NCc1cccc(C(F)(F)F)c1 (centres unmarked) [Example 8, 2-[1-(2,3-dihydro-benzo[1,4]dioxin-6-yl)-3,4-dihydro-1H-pyrrolo[1,2-a]pyrazin-2-yl]-N-(3-trifluoromethyl-benzyl)-acetamide]
 | 9 |  | O=C(CN1CCn2cccc2C1c1ccccc1)NCc1cccc(C(F)(F)F)c1 (centres unmarked) [Example 91, 2-(1-phenyl-3,4-dihydropyrrolo[1,2-a]pyrazin-2(1H)-yl)-N-(3-(trifluoromethyl)benzyl)acetamide]
 | 3 |  | O=C(CCc1cccc(C(F)(F)F)c1)NCC(=O)N1CCn2cccc2C1c1ccccc1 (centres unmarked) [Example 87]
0.11 |  | 5.28 | CC(NC(=O)CCC(=O)N1CCn2cccc2C1c1cccs1)c1cccc(C(F)(F)F)c1 (centres unmarked) [Example 82, 4-oxo-4-(1-(thiophen-2-yl)-3,4-dihydropyrrolo[1,2-a]pyrazin-2(1H)-yl)-N-(1-(3-(trifluoromethyl)phenyl)ethyl)butanamide]
